Results taken from ChEMBL document CHEMBL3580641, “Bioactive Maleic Anhydrides and Related Diacids from the Aquatic Hyphomycete Tricladium castaneicola” (J Nat Prod, 2015).
Activity calls are given as the source filed them. The calls are words filed in the database; no cut-off is given here.

Experiments:
[1] = test system: B16; assay: Cytotoxicity against mouse B16 cells assessed as cell viability after 48 hrs by MTT assay; type: functional, cell-based; conditions: B16, 48 h
[2] = test system: Phytophthora capsici; assay: Antifungal activity against Phytophthora capsici NBRC 30696 after 22 to 24 hrs by paper disk diffusion method; type: functional, organism-based

Row | Compound | IC50 [1] | Activity [2]
1 | CCCCCC/C=C/C1=C(C)C(=O)OC1=O | 80 µM | Active
2 | CC(=O)O[C@H]1C(=O)[C@@]2(C)[C@H]([C@H](OC(=O)c3ccccc3)[C@]3(O)C[C@H](OC(=O)[C@H](O)[C@@H](NC(=O)c4ccccc4)c4ccccc4)C(C)=C1C3(C)C)[C@]1(OC(C)=O)CO[C@@H]1C[C@@H]2O [PACLITAXEL] | 56 µM | 
3 | CC1=C(/C=C/CCC/C=C/CO)C(=O)OC1=O |  | inactive
4 | C[C@@H]1[C@H](O)[C@@H](C)/C=C/C=C/C=C/C=C/C=C/C=C/C=C/[C@H](O[C@@H]2O[C@H](C)[C@@H](O)[C@H](N)[C@@H]2O)C[C@@H]2O[C@](O)(C[C@@H](O)C[C@@H](O)[C@H](O)CC[C@@H](O)C[C@@H](O)CC(=O)O[C@H]1C)C[C@H](O)[C@H]2C(=O)O |  | Active
5 | C=C(C(=O)O)/C(=C\CCCC[C@@H](O)CC)C(=O)O |  | Active
6 | CC1=C(/C=C/CCC/C=C/C(=O)O)C(=O)OC1=O |  | Active
7 | CC1=C(/C=C/CCCCC(C)O)C(=O)OC1=O (stereo unspecified) |  | inactive
8 | CCCCCC/C=C/C(C(=O)OC)=C(\C)C(=O)OC | 30 µM | Active
9 | C=C(C(=O)O)/C(=C\CCCCCCCO)C(=O)O |  | Active
